Experimental data as given in patent US20240140953A1, “INHIBITORS OF MENIN-MLL INTERACTION” (BIOMEA FUSION, INC., priority 2018, published 2024).
Like-named read-outs stand apart in the source and are kept apart here. Values belong to the molecule of their own block, whether it stands above or below them.

Legend:
[1] = system: MOLM-13; test: Long term proliferation, Cell Titer-Glo (Table 3B), MOLM-13; assay type: cell-based; conditions: Homo sapiens, MOLM-13, Cell Titer-Glo
[2] = system: MOLM-13; test: Long term proliferation, InCell (Table 3C), MOLM-13; assay type: cell-based; conditions: Homo sapiens, MOLM-13, InCell
Description: (§1) Compounds of invention are tested in the 5 suspension lines by 14-day long-term proliferation assay.
(§2) The compound is tested in 10-pt dose titration (client will determine the starting concentration and the dilution scheme) and the final DMSO concentration is kept at 0.2%.
(§3) Vehicle and media control are also included. All treatments are done in triplicate.
(§4) • 1) On Day 0, in a flat bottom 96-well plate, add 100 μL of cells per well at the densities optimized. • 2) Prepare compounds in DMSO at 500× final concentration. Dilute the compounds with DMSO at the dilution. • 3) Dilute the compounds in media at 3×final concentration. Add 50 μL of compound or DMSO at 3× final concentration to each well. Final volume in each well is 150 μL, and final concentration of DMSO is 0.2%. Also include 3 untreated control wells, by adding 50 μL of media alone. 4) Incubate plates for 96 hours. • 5) Count the cells using the Acumen, with capabilities for 96-well plates. Pipette cells up and down to mix in each well, and add desired volume of cells to a new flat bottom poly-D-lysine 96-well plate. Add Calcein AM at 1 μM final concentration. Let cells sit at RT for 10 mins followed by a quick spin to get cells settled on the bottom of the wells. Incubate the plate for additional 40 mins in the incubator. Take out the plate and read by Acumen. Calculate the cell numbers taken into account the dilution factors. • 6) Split the master plate. To do this take the total viable cell count calculated using step 5). Take the average of the replicates for each dose in order to be used in splitting the cells. • 7) Use a 96 well V-bottom plate to spin down the cells to remove old media and compound to split the cells. Based on the split ratio place the proper amount of media and cells into the V-bottom plate, and spin the plate at 1100 rpm for 5 minutes. • 8) Following the spin remove the media, careful not to disturb the cellpellet. • 9) Re-suspend pellet in 100 μL fresh media, and add to a new 96-well flat bottom plate. • 10) Add fresh compound, in the same manner as Step 3). • 11) Incubate plates for 72 hours. Repeat steps 5)-10) on Day 7. • 12) Incubate plates for 96 hours. Repeat Step 5)-10) on Day 11. • 13) Incubate 72 hours and repeat step 5) to take a final count. • 14) Data Analysis
(§5) To calculate growth for days 4, 7, 11, and 14: • Calculate the split factor for day 4 to 7, day 7 to 11, and day 11-14.

[3] = system: OCI-AML-3; test: Long term proliferation, Cell Titer-Glo (Table 3B), OCI-AML-3; assay type: cell-based; conditions: Homo sapiens, OCI-AML-3, Cell Titer-Glo
[4] = system: OCI-AML-3; test: Long term proliferation, InCell (Table 3C), OCI-AML-3; assay type: cell-based; conditions: Homo sapiens, OCI-AML-3, InCell
Description: as §1, §2, §3, §4, §5

[5] = system: KG-1; test: Long term proliferation, InCell (Table 3C), KG-1; assay type: cell-based; conditions: Homo sapiens, KG-1, InCell
Description: as §1, §2, §3, §4, §5

[6] = system: MV4-11; test: Long term proliferation, Cell Titer-Glo (Table 3B), MV4-11; assay type: cell-based; conditions: Homo sapiens, MV4-11, Cell Titer-Glo
[7] = system: MV4-11 (MLL-AF4); test: LTP assay, CellTiterGlo, T4-T14 (Example 103), MV4-11; assay type: cell-based, human; conditions: for inhibition of cell viability (in words): MV4-11, LTP assay
Description: (§6) The day of the experiment (T0) all the cell line suspensions were counted by Cell Viability Analyser, Vi-CELL and properly diluted with fresh medium to obtain the cell density reported in the Test System paragraph.
(§7) Cells were tested after 4 passages after thawing.
(§8) 200 μL/well and 150 μL/well of cell suspension were added into the 0.4 μL/well and 0.3 μL/well compound plates, respectively. • Cell plate containing 200 μL/well suspension was incubated at 37° C. in a humidified incubator with 5% CO2. • From each well of the 150 μL/well cell assay plate, 100 μL were harvested and transferred into a 96-well Optiplate (Perkin Elmer, Cat. n. 6005290) and cell viability was measured as described in 4.3 paragraphs (T0).
(§9) After four days in culture (T4) 150 μL/well of fresh medium were added into a new 0.3 μL/well copy compound plate. • From each well of the 200 μL/well cell assay plate: • 100 μL were sampled for the cell viability measurement as described in 4.3 paragraphs (T4). • 50 μL were harvested and added to the 150 μL/well compound plate prepared as described in the first point to dilute 1:4 the cell suspension. • The cell assay plate diluted and containing 200 μL/well suspension were incubated at 37° C. in a humidified incubator with 5% Co2.
(§10) At T7-T11-T14 it was proceeded as described in T4, with the exception that no further cell dilution was carried out at T14.
(§11) Plates containing the samples to be tested were equilibrated at room temperature for approximately 30 min and then 30 μL/well of the Promega CellTiterGlo® reagent were added.
(§12) Contents will be mixed for 5 min on an orbital shaker to induce cell lysis and then incubated at room temperature for an additional 10 min to stabilize the luminescent signal.
(§13) Luminescence was read by using VictorV (Perkin Elmer) multilabel plate reader using the standard protocol for luminescence in 96 well plate.
(§14) Data were expressed as % of inhibition compared to the 0.2% DMSO negative control, and was calculated as follows: […]
(§15) CRCs were analysed by GraphPad and IC50 values were calculated by non-linear regression using 4 parameter-logistic equation. IC50 (μM) values were reported in the final data table.
(§16) The curve fittings were performed leaving free all the parameters. Any constrain were reported in the results table.

[8] = system: RS4-11 (MLL-AF4); test: LTP assay, CellTiterGlo, T4-T14 (Example 103), RS4-11; assay type: cell-based; conditions: for inhibition of cell viability (in words): RS4;11, LTP assay
Description: as §6, §7, §8, §9, §10, §11, §12, §13, §14, §15, §16

[9] = target: menin (Homo sapiens (Human), UniProt O00255); test: Kd (Table 3A); assay type: binding
menin, sequence (O00255 whole entry, species assumed): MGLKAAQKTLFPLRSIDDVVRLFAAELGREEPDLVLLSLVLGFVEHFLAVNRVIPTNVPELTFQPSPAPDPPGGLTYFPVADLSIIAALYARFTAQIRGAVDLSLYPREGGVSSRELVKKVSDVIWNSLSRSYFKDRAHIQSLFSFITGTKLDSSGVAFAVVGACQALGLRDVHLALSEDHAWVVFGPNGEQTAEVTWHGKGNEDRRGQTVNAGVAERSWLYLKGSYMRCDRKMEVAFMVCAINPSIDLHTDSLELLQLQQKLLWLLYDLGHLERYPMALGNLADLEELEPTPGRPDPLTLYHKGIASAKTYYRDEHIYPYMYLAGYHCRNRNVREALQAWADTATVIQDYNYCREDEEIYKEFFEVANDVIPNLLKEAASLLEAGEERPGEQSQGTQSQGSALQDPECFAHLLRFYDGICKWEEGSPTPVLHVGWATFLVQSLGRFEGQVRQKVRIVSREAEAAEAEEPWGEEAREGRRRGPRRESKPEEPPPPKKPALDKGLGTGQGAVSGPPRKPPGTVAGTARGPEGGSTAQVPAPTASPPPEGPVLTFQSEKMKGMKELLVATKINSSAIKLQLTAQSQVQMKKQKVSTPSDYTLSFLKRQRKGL

[10] = 96 h, Day 4, read-out: Day 4 IC50
[11] = 168 h, Day 7, read-out: Day 7 IC50
[12] = 264 h, Day 11, read-out: Day 11 IC50
[13] = 336 h, Day 14, read-out: Day 14 IC50
[14] = Homo sapiens, MV4-11, 96 h, MV4-11 (MLL-AF4), T4 (Day 4), read-out: IC50 T4 (Day 4)
[15] = Homo sapiens, MV4-11, MV4-11 (MLL-AF4), T7, read-out: IC50 T7
[16] = Homo sapiens, MV4-11, MV4-11 (MLL-AF4), T11, read-out: IC50 T11
[17] = Homo sapiens, MV4-11, MV4-11 (MLL-AF4), T14, read-out: IC50 T14
[18] = Homo sapiens, RS4-11, 96 h, RS4-11 (MLL-AF4), T4 (Day 4), read-out: IC50 T4 (Day 4)
[19] = Homo sapiens, RS4-11, RS4-11 (MLL-AF4), T7, read-out: IC50 T7
[20] = Homo sapiens, RS4-11, RS4-11 (MLL-AF4), T11, read-out: IC50 T11

IC50 [1, 10]: 410 nM
IC50 [1, 11]: 240 nM
IC50 [1, 12]: 240 nM
IC50 [1, 13]: 480 nM
IC50 [2, 10]: 520 nM
IC50 [2, 12]: 340 nM
IC50 [3, 10]: 870 nM
IC50 [3, 11]: 710 nM
IC50 [3, 12]: 650 nM
IC50 [3, 13]: 720 nM
IC50 [4, 10]: 370 nM
IC50 [4, 12]: 720 nM
IC50 [6, 10]: 740 nM
IC50 [6, 11]: 380 nM
IC50 [6, 12]: 320 nM
IC50 [6, 13]: 210 nM
SMILES: O=C(Nc1ccc(-c2cc3c(N4CCOCC4)ncnc3[nH]2)cc1)Nc1cc(-c2cccnc2)n[nH]1 [Compound 9, 1-{4-[4-(morpholin-4-yl)-7H-pyrrolo[2,3-d]pyrimidin-6-yl]phenyl}-3-[3-(pyridin-3-yl)-1H-pyrazol-5-yl]urea]
IC50 [5, 10]: 3310 nM
IC50 [5, 12]: 2290 nM

IC50 [7, 14]: 650 nM
IC50 [7, 15]: 500 nM
IC50 [7, 16]: 420 nM
IC50 [7, 17]: 310 nM
IC50 ([7]; MV4-11 (MLL-AF4), T4 (Day 4), read-out: IC50 T4 (Day 4)): 646 nM
IC50 ([7]; MV4-11 (MLL-AF4), T7, read-out: IC50 T7): 501 nM
IC50 [8, 18]: 1230 nM
IC50 [8, 19]: 850 nM
IC50 [8, 20]: 110 nM
IC50 ([8]; RS4-11 (MLL-AF4), T7, read-out: IC50 T7): 851 nM
SMILES: Cn1nc(-c2cccnc2)cc1CC(=O)Nc1ccc(-c2cc3c(N4CCOCC4)ncnc3[nH]2)cc1 [Compound 11, 2-[1-methyl-3-(pyridin-3-yl)-1H-pyrazol-5-yl]-N-{4-[4-(morpholin-4-yl)-7H-pyrrolo[2,3-d]pyrimidin-6-yl]phenyl}acetamide]
inhibition of cell viability (in words) [7]: fully inhibited cell viability
inhibition of cell viability (in words) [8]: fully inhibited cell viability

IC50 [7, 14]: 1550 nM
IC50 [7, 15]: 1260 nM
IC50 [7, 16]: 850 nM
IC50 [7, 17]: 870 nM
IC50 [8, 18]: 580 nM
IC50 [8, 19]: 420 nM
IC50 [8, 20]: 260 nM
Kd [9]: 500 ± 200 nM
SMILES: O=C(Cc1cc(-c2cccnc2)n[nH]1)Nc1ccc(-c2nc3c(N4CCOCC4)ncnc3[nH]2)cc1 [Compound 12, N-{4-[6-(morpholin-4-yl)-9H-purin-8-yl]phenyl}-2-[3-(pyridin-3-yl)-1H-pyrazol-5-yl]acetamide]
inhibition of cell viability (in words) [7]: partial effect
inhibition of cell viability (in words) [8]: fully inhibited the cell viability
